Data on 11 compounds can be found in PubChem BioAssay (NCI).

Test systems include T-47D breast; A498 renal; HT29 colon; SW-620 colon; HCC-2998 colon; KM12 colon; RXF 393 renal; CAKI-1 renal; PC-3 prostate; M14 melanoma; 786-0 renal; NCI-H23 lung; SK-MEL-2 melanoma; ACHN renal; BT-549 breast; SK-MEL-5 melanoma; UACC-257 melanoma; HCT-116 colon; SF-539 CNS; MDA-MB-231 breast.
Experiment in all cases: growth of human tumour cells (NCI), 48 h

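Five compound concentrations were applied to cells in 96-well plates for 48 hours; endpoints were derived by simple linear interpolation of the resulting dose-response curve. TGI is the concentration that stops growth completely.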

For the compound `O=C1NC(N/N=C\C(O)C(O)C(O)C(O)CO)=N/C1=C/c1ccc(Cl)cc1` (stereo not given), the TGI with T-47D breast, in the test with A498 renal, in the test with HT29 colon, with SW-620 colon, with HCC-2998 colon and in the test with KM12 colon was over 100 µM in each case. The TGI in the test with RXF 393 renal, with CAKI-1 renal, in the test with PC-3 prostate, with M14 melanoma, in the test on 786-0 renal and with NCI-H23 lung was over 100 µM throughout. In addition, the TGI with SK-MEL-2 melanoma, in the test on ACHN renal, with BT-549 breast, in the test with SK-MEL-5 melanoma, with UACC-257 melanoma and with HCT-116 colon was over 100 µM in each case. Besides, the TGI with SF-539 CNS and in the test with MDA-MB-231 breast was over 100 µM each time.
For `CC(C)=CCC/C(C)=C/CC/C(C)=C/CC(CO)N(C)CC/C=C(\C)CCC=C(C)C` (stereo not given), the TGI in the test on T-47D breast was 10.7 µM; in the test on A498 renal, 28.4 µM; with HT29 colon, 14.4 µM; in the test with SW-620 colon it was 13.7 µM; in the test with HCC-2998 colon, 10.8 µM; in the test on KM12 colon, 14.5 µM. Moreover, the TGI in the test on RXF 393 renal amounted to 12.8 µM; in the test on CAKI-1 renal, 19.2 µM; with PC-3 prostate, 20.2 µM; in the test with M14 melanoma, 3.75 µM; with 786-0 renal, 4.89 µM; in the test on NCI-H23 lung, 21.8 µM. For the same compound, the TGI in the test with SK-MEL-2 melanoma was 28.6 µM; in the test with ACHN renal, 23.8 µM; with BT-549 breast it was 27.5 µM; in the test on SK-MEL-5 melanoma, 23.2 µM; in the test on UACC-257 melanoma it was 19.3 µM; in the test with HCT-116 colon, 6.46 µM. Moreover, the TGI with SF-539 CNS amounted to 9.76 µM; in the test with MDA-MB-231 breast, 22.6 µM.
For `CC1C=CN(N(C)C)C2=C1C(=O)c1cnccc1C2=O` (stereo not given), the TGI in the test with T-47D breast was 4.33 µM; in the test with A498 renal, 2.66 µM; in the test on HT29 colon, 2.27 µM; with SW-620 colon, 1.83 µM; with HCC-2998 colon it was 1.8 µM; in the test on KM12 colon, 2.8 µM. Further, the TGI in the test with RXF 393 renal stood at 1.46 µM; in the test on CAKI-1 renal it was 0.597 µM; in the test with PC-3 prostate, 7.89 µM; in the test on M14 melanoma, 1.62 µM; with 786-0 renal, 0.538 µM; in the test on NCI-H23 lung it was 0.823 µM. In addition, the TGI with SK-MEL-2 melanoma was 4.02 µM; with ACHN renal, 1.06 µM; with BT-549 breast, 1.66 µM; with SK-MEL-5 melanoma it was 0.894 µM; with UACC-257 melanoma it was 0.75 µM; in the test on HCT-116 colon, 1.48 µM. Also, the figures for the TGI in the test with SF-539 CNS and in the test with MDA-MB-231 breast were 1.26 µM and 2.12 µM, respectively.
Take `O=C(O)CCSC(CC1(c2ccc(Cl)cc2)NC(=O)CCS1)c1ccccc1` (stereo not given): the TGI was over 60 µM in the test with T-47D breast; 42.9 µM in the test on A498 renal; 38.1 µM in the test on HT29 colon; 41.7 µM with SW-620 colon; 39.6 µM with HCC-2998 colon; 14.1 µM with KM12 colon. The TGI was over 54.8 µM in the test on RXF 393 renal; 37.3 µM in the test with CAKI-1 renal; 37.3 µM in the test with PC-3 prostate; 50.9 µM in the test with M14 melanoma; 20.9 µM in the test with 786-0 renal; 50.1 µM in the test with NCI-H23 lung. The TGI is 38.7 µM with SK-MEL-2 melanoma; over 59.4 µM in the test with ACHN renal; 31.1 µM with BT-549 breast; 48 µM with SK-MEL-5 melanoma; 49.1 µM in the test on UACC-257 melanoma; 17.4 µM with HCT-116 colon. Besides, the figures for the TGI in the test on SF-539 CNS and with MDA-MB-231 breast were 27.3 µM and 46.6 µM, respectively.
`COC(=O)/C=C\C(C#N)(C#N)N=Cc1cc(Br)cs1`: the TGI turned out to be 5.07 µM with T-47D breast; 32.9 µM in the test on A498 renal; 4.86 µM in the test with HT29 colon; 2.72 µM with SW-620 colon; 30.8 µM with HCC-2998 colon; 48 µM in the test on KM12 colon. Also, the TGI was 5.38 µM with RXF 393 renal; 7.53 µM with CAKI-1 renal; 16 µM in the test on PC-3 prostate; 6.48 µM in the test on M14 melanoma; 3.78 µM in the test on 786-0 renal; 13.5 µM with NCI-H23 lung. Besides, the TGI is 25.5 µM with SK-MEL-2 melanoma; 4.93 µM in the test with ACHN renal; 17.9 µM in the test with BT-549 breast; 18.3 µM in the test on SK-MEL-5 melanoma; 7.74 µM in the test with UACC-257 melanoma; 3.72 µM in the test with HCT-116 colon. Also, the TGI stood at 11 µM with SF-539 CNS and 23.3 µM in the test on MDA-MB-231 breast.
`CCOC(=O)C(CCN1CCC2(CC1)C(=O)N(C)CN2c1ccccc1)C(=O)OCC`: the TGI in the test on T-47D breast, with A498 renal, in the test on HT29 colon, with SW-620 colon, in the test with HCC-2998 colon and in the test with KM12 colon was over 100 µM each time. Besides, the TGI in the test with RXF 393 renal, in the test with CAKI-1 renal, in the test on PC-3 prostate, with M14 melanoma, with 786-0 renal and in the test on NCI-H23 lung was over 100 µM in each case. Besides, the TGI in the test with SK-MEL-2 melanoma, in the test with ACHN renal, in the test with BT-549 breast, with SK-MEL-5 melanoma, with UACC-257 melanoma and in the test on HCT-116 colon was over 100 µM each time. In addition, the TGI with SF-539 CNS and in the test on MDA-MB-231 breast was over 100 µM throughout.
As for `COC1=C(Br)[C@H](O)[C@@]2(C=C1Br)CC(C(=O)NCCCOc1c(Br)cc(C(O)CNC(C)=O)cc1Br)=NO2` (stereo not given in full), the TGI with T-47D breast, in the test on A498 renal, in the test on HT29 colon, with SW-620 colon, in the test on HCC-2998 colon and in the test with KM12 colon was over 10 µM throughout. The TGI in the test on RXF 393 renal, in the test on CAKI-1 renal, with PC-3 prostate, with M14 melanoma, in the test on 786-0 renal and in the test on NCI-H23 lung was over 10 µM each time. For the same compound, the TGI in the test with SK-MEL-2 melanoma, in the test on ACHN renal, in the test on BT-549 breast, with SK-MEL-5 melanoma, with UACC-257 melanoma and with HCT-116 colon was over 10 µM in each case. Further, the TGI with SF-539 CNS and with MDA-MB-231 breast was over 10 µM throughout.
With `O=C(N(O)c1ccccc1Cl)C(O)(c1ccccc1)c1ccccc1`, the TGI in the test on T-47D breast, with A498 renal, with HT29 colon, in the test on SW-620 colon, in the test on HCC-2998 colon and with KM12 colon was over 100 µM in each case. The TGI with RXF 393 renal, in the test on CAKI-1 renal, in the test with PC-3 prostate, in the test with M14 melanoma, with 786-0 renal and in the test with NCI-H23 lung was over 100 µM in each case. For the same compound, the TGI in the test with SK-MEL-2 melanoma, in the test with ACHN renal, in the test on BT-549 breast, in the test on SK-MEL-5 melanoma, with UACC-257 melanoma and in the test with HCT-116 colon was over 100 µM throughout. Besides, the TGI in the test with SF-539 CNS and with MDA-MB-231 breast was over 100 µM in each case.
Consider `CCOC(=O)c1nc2cc(F)c(N3CCOCC3)cc2[nH]c1=O`, for which the TGI in the test on T-47D breast, in the test with A498 renal, in the test with HT29 colon, in the test on SW-620 colon, with HCC-2998 colon and in the test on KM12 colon was over 100 µM in each case. Also, the TGI with RXF 393 renal, with CAKI-1 renal, with PC-3 prostate, in the test with M14 melanoma, in the test with 786-0 renal and in the test on NCI-H23 lung was over 100 µM in each case. Moreover, the TGI with SK-MEL-2 melanoma, in the test on ACHN renal, in the test on BT-549 breast, with SK-MEL-5 melanoma, with UACC-257 melanoma and in the test on HCT-116 colon was over 100 µM in each case. The TGI in the test with SF-539 CNS and with MDA-MB-231 breast was over 100 µM each time.
With `C=C1CC/C=C(\C)CCC[C@H](C)[C@@H](O)[C@@H]2OC(=O)C(=C)[C@@H]2C[C@H]1O`, the TGI with T-47D breast was 47.1 µM; in the test with A498 renal it was over 100 µM; with HT29 colon it was 15.2 µM; with SW-620 colon, over 32.4 µM; in the test on HCC-2998 colon it was 50.5 µM; in the test on KM12 colon it was 29.9 µM. Besides, the TGI in the test on RXF 393 renal is 22.2 µM; in the test with CAKI-1 renal it was 17 µM; with PC-3 prostate it was 23.1 µM; in the test on M14 melanoma, 28.4 µM; in the test on 786-0 renal it was 18.6 µM; with NCI-H23 lung it was 26.8 µM. For the same compound, the TGI came to 27 µM in the test on SK-MEL-2 melanoma; 9.5 µM with ACHN renal; 3 µM in the test with BT-549 breast; 22.6 µM in the test with SK-MEL-5 melanoma; 31.9 µM with UACC-257 melanoma; 30.5 µM with HCT-116 colon. Further, the TGI in the test on SF-539 CNS was found to be 6.94 µM; with MDA-MB-231 breast it was 50.5 µM.
With `NCC(=O)Nc1ccc(S(=O)(=O)O)c2cc(S(=O)(=O)O)cc(S(=O)(=O)O)c12`, the TGI with T-47D breast, in the test on A498 renal, in the test with HT29 colon, in the test on SW-620 colon, with HCC-2998 colon and in the test on KM12 colon was over 100 µM in each case. Moreover, the TGI in the test on RXF 393 renal, in the test with CAKI-1 renal, in the test with PC-3 prostate, in the test with M14 melanoma, with 786-0 renal and in the test with NCI-H23 lung was over 100 µM in each case. Moreover, the TGI in the test with SK-MEL-2 melanoma, in the test on ACHN renal, in the test on BT-549 breast, in the test on SK-MEL-5 melanoma, with UACC-257 melanoma and in the test with HCT-116 colon was over 100 µM throughout. For the same compound, the TGI with SF-539 CNS and with MDA-MB-231 breast was over 100 µM each time.
